Experimental data: patent US20240002326A1, “COMPOUNDS AND USE THEREOF IN METHODS OF TREATMENT” (The University of Queensland, priority 2016, published 2024)
“Also recorded” adds a separate entry of the source.

Molecular target: SOX18-RBPJ interaction (Homo sapiens (Human), UniProt P35713)
Experiment: ALPHAScreen SOX18-RBPJ protein-protein interaction
Type: binding
Excerpt: Proteins were genetically encoded with enhanced GFP (GFP), mCherry and cMyc (myc) tags, and cloned into cell free expression Gateway destination vectors: N-terminal GFP tagged (pCellFree_G03), N-terminal Cherry-cMyc (pCellFree_G07) and C-terminal Cherry-cMyc tagged (pCellFree_G08) (Gagoski et al., 2015). Human RBPJ (BC020780) and MEF2C (BC026341) Open Reading Frames (ORFs) were sourced from the Human ORFeome collection, version 1.1 and 5.1, and the Human Orfeome collaboration OCAA collection (Open Biosystems), as previously described (Sierecki et al., 2013) and cloned at the ARVEC facility, UQ Diamantina Institute. The entry clones pDONOR223 or pENTR201 vectors were exchanged with the ccdB gene in the expression plasmid by LR recombination (Life Technologies, Australia). The full-length human SOX18 gene was synthesized and the transfer to vectors was realized using Gateway PCR cloning. Translation competent Leishmania tarentolae extract (LTE) was prepared as previously described (Kovtun et al., 2011, Mureev et al., 2009). Protein pairs were co-expressed by adding 30 nM of GFP template plasmid and 60 nM of Cherry template plasmid to LTE and incubating for 3 hours at 27° C.
ALPHAScreen was performed as previously described (Sierecki et al., 2014, Sierecki et al., 2013). […] Percentage of interaction was calculated as: (I_cpd/I_DMSO)×100 from 3 independent experiments.
ALPHAScreen was performed as previously described (Sierecki et al., 2014, Sierecki et al., 2013), using the cMyc detection kit and Proxiplate-384 Plus plates (PerkinElmer). The LTE lysate co-expressing the proteins of interest was diluted in buffer A (25 mM HEPES, 50 mM NaCl). For the assay, 12.5 μL (0.4 μg) of Anti-cMyc coated Acceptor Beads in buffer B (25 mM HEPES, 50 mM NaCl, 0.001% NP40, 0.001% casein) were aliquoted into each well. This was followed by the addition of 2 μL of diluted sample, at different concentration, and 2 μL of biotin labeled GFP-Nanotrap in buffer A. The plates were incubated for 45 min at room temperature, then adding 2 μL (0.4 μg) of streptavidin-coated Donor Beads diluted in buffer A, and incubation in the dark for 45 min at room temperature. The ALPHAScreen signal was measured on an Envision Plate Reader (PerkinElmer), using manufacturer's recommended settings (λexc=680/30 nm for 0.18 s, λem=570/100 nm after 37 ms). The resulting bell-shaped curve is an indication of a positive interaction, while a flat line reflects a lack of interaction between the proteins. The measurement of each protein pair was repeated in triplicate.
I is the highest signal level (top of the hook effect curve) and Ineg is the lowest (background) signal level. The signals were normalized to the Iref signal obtained for the strongest interaction. […] Percentage of interaction was calculated as: […]
The ALPHA-Screen Assay was performed as previously described (Sierecki et al. 2014), using the cMyc detection kit and Proxiplate-384 Plus plates (PerkinElmer). A serial dilution of each sample was measured. The LTE lysate co-expressing the proteins of interest was diluted in buffer A (25 mM HEPES, 50 mM NaCl). For the assay, 12.5 μL (0.4 μg) of Anti-cMyc coated Acceptor Beads in buffer B (25 mM HEPES, 50 mM NaCl, 0.001% NP40, casein) were aliquoted into each well. This was followed by the addition of 2 μL of diluted sample and 2 μL of biotin labeled GFP-Nanotrap in buffer A. The plate was incubated for 45 min at RT. Afterward, 2 μL (0.4 μg) of Streptavidin coated Donor Beads diluted in buffer A, were added, followed by incubation in the dark for 45 min at RT. The ALPHA-Screen signal was obtained on an Envision Multilabel Plate Reader (PerkinElmer), using the manufacturer's recommended settings (excitation: 680/30 nm for 0.18 s, emission: 570/100 nm after 37 ms). The resulting bell-shaped curve is an indication of a positive interaction, while a flat line reflects a lack of interaction between the proteins. […]

SOX18-RBPJ interaction, sequence (P35713 whole entry): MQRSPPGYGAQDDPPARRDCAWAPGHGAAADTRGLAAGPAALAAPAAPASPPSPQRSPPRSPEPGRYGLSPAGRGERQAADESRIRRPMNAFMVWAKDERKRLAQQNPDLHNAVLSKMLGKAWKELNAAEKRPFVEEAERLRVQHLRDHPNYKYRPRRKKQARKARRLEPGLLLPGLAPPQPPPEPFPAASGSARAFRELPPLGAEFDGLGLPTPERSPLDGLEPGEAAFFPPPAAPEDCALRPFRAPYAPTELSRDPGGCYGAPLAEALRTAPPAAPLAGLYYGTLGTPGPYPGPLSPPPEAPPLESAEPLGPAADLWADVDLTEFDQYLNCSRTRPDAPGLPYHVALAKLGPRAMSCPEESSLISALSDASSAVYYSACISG

Row | SOX18-RBPJ protein-protein binding inhibition at 5 μM | SMILES | IC50 (ALPHAScreen, read-out: SOX18-RBPJ interaction disruption IC50)
1 |  | O=C(O)c1ccccc1Nc1cccc(C(F)(F)F)c1 [Flufenamic acid, reference compound] | ~444 µM
2 | highly active | COc1cc(C)cc(/C=C/c2ccc3ccccc3c2)c1C(=O)O [Sm34, (E)-2-methoxy-4-methyl-6-(2-(naphthalen-2-yl)vinyl)benzoic acid] | 
3 | highly active | Oc1cc(CCc2ccccc2)cc(O)c1O [Sm40, 5-phenethylbenzene-1,2,3-triol] | 

Row | SMILES | SOX18-RBPJ protein-protein binding inhibition at 5 μM | IC50 (ALPHAScreen, read-out: SOX18-RBPJ interaction disruption IC50)
4 | CCN(CC)C(=O)c1c(O)cc(O)cc1CCc1ccc2ccccc2c1 [Sm26, N,N,diethyl-2,4-hydroxy-6-(2-(naphthalen-2-yl)ethyl)benzamide] | highly active; also recorded: moderately active | 
